These results are taken from ChEMBL document CHEMBL4699417, “Leishmania infantum isolates exhibit high infectivity and reduced susceptibility to amphotericin B” (RSC Med Chem, 2020).

For assay [1], the system named is Leishmania infantum. The experiment in a line: Antileishmanial activity against promastigote form of Leishmania infantum MCAN_UY_2015_bPL7 isolate assessed as decrease in parasite viability measured after 72 hrs by resazurin assay.
Assay [2] relates to Leishmania infantum. The experiment in a line: Antileishmanial activity against promastigote form of Leishmania infantum MCAN_UY_2015_mCO8 isolate assessed as decrease in parasite viability measured after 72 hrs by resazurin assay.
Assay [3] relates to Leishmania infantum. The experiment in a line: Antileishmanial activity against promastigote form of Leishmania infantum MCAN_UY_2015_bCH11 isolate assessed as decrease in parasite viability measured after 72 hrs by resazurin assay. (Resazurin is reduced to fluorescent resorufin, in cell work by metabolically active cells.)
For assay [4], the system named is Leishmania infantum. The experiment in a line: Antileishmanial activity against promastigote form of Leishmania infantum MHOM/BR/2002/LPC-RPV assessed as decrease in parasite viability measured after 72 hrs by resazurin assay.
The test system of assay [5] is Leishmania infantum. The experiment in a line: Antileishmanial activity against promastigote form of Leishmania infantum MCAN_UY_2015_gPL8 isolate assessed as decrease in parasite viability measured after 72 hrs by resazurin assay.
Assay [6] concerns Leishmania infantum. The experiment in a line: Antileishmanial activity against promastigote form of Leishmania infantum MCAN_UY_2015_gCH2 isolate assessed as decrease in parasite viability measured after 72 hrs by resazurin assay.
The test system of assay [7] is Leishmania infantum. The experiment in a line: Antileishmanial activity against amastigote form of Leishmania infantum MCAN_UY_2015_bPL7 isolate assessed as decrease in parasite viability measured after 72 hrs by resazurin assay. Type of assay: functional, organism-based.
Assay [8] concerns Leishmania infantum. The experiment in a line: Antileishmanial activity against amastigote form of Leishmania infantum MCAN_UY_2015_mCO8 isolate assessed as decrease in parasite viability measured after 72 hrs by resazurin assay. Type of assay: functional, organism-based.
Assay [9] deals with Leishmania infantum. The experiment in a line: Antileishmanial activity against amastigote form of Leishmania infantum MCAN_UY_2015_gPL8 isolate assessed as decrease in parasite viability measured after 72 hrs by resazurin assay. Type of assay: functional, organism-based.
Assay [10] concerns Leishmania infantum. The experiment in a line: Antileishmanial activity against amastigote form of Leishmania infantum MCAN_UY_2015_gCH2 isolate assessed as decrease in parasite viability measured after 72 hrs by resazurin assay. Type of assay: functional, organism-based.
In assay [11] the test system is Leishmania infantum. The experiment in a line: Antileishmanial activity against amastigote form of Leishmania infantum MHOM/BR/2002/LPC-RPV assessed as decrease in parasite viability measured after 72 hrs by resazurin assay. Type of assay: functional, organism-based.
For assay [12], the system named is Leishmania infantum. The experiment in a line: Antileishmanial activity against amastigote form of Leishmania infantum MCAN_UY_2015_bCH11 isolate assessed as decrease in parasite viability measured after 72 hrs by resazurin assay. Type of assay: functional, organism-based.

What is called IC50 is the concentration at which inhibition is half-maximal. Consider `C[C@@H]1[C@H](O)[C@@H](C)/C=C/C=C/C=C/C=C/C=C/C=C/C=C/[C@H](O[C@@H]2O[C@H](C)[C@@H](O)[C@H](N)[C@@H]2O)C[C@@H]2O[C@](O)(C[C@@H](O)C[C@@H](O)[C@H](O)CC[C@@H](O)C[C@@H](O)CC(=O)O[C@H]1C)C[C@H](O)[C@H]2C(=O)O` [AMPHOTERICIN B], for which the IC50 turned out to be 24.9 µM with Leishmania infantum [1]; 12.7 µM in the assay with Leishmania infantum [2]; 24.6 µM with Leishmania infantum [3]; 6.5 µM in the assay with Leishmania infantum [4]; 24.4 µM in the assay on Leishmania infantum [5]; 24.8 µM in the assay with Leishmania infantum [6].

`CC[C@H](C)C(=O)O[C@H]1C[C@@H](C)C=C2C=C[C@H](C)[C@H](CC[C@@H]3C[C@@H](O)CC(=O)O3)[C@H]21` [LOVASTATIN]: the IC50 in the assay with Leishmania infantum [1] was found to be 25.3 µM; in the assay with Leishmania infantum [2], 25.4 µM; in the assay on Leishmania infantum [3], 25.3 µM; in the assay with Leishmania infantum [4], 12.9 µM; in the assay with Leishmania infantum [5] it was 25.4 µM; with Leishmania infantum [6], 25.3 µM.

With `CCCCCCCCCCCCCCCCOP(=O)([O-])OCC[N+](C)(C)C` [MILTEFOSINE], the IC50 in the assay with Leishmania infantum [1] is 3.6 µM; with Leishmania infantum [2] it was 3.4 µM; with Leishmania infantum [3], 3.8 µM; in the assay on Leishmania infantum [4], 5.3 µM; in the assay with Leishmania infantum [5] it was 4.1 µM; in the assay on Leishmania infantum [6], 4.1 µM.

For `CC1CS(=O)(=O)CCN1/N=C/c1ccc([N+](=O)[O-])o1` (stereo not given) [NIFURTIMOX], the IC50 in the assay on Leishmania infantum [1] stood at 6.5 µM; with Leishmania infantum [2] it was 6.7 µM; in the assay on Leishmania infantum [3], 6.5 µM; in the assay with Leishmania infantum [4], 6.3 µM; in the assay with Leishmania infantum [5] it was 6 µM; in the assay on Leishmania infantum [6], 6.7 µM.

With MEGLUMINE ANTIMONATE, the IC50 came out at 50.2 µM in the assay on Leishmania infantum [7]; 51 µM in the assay on Leishmania infantum [8]; 50.1 µM in the assay with Leishmania infantum [9]; 50.4 µM in the assay on Leishmania infantum [10]; 50.1 µM in the assay on Leishmania infantum [11]; 50.5 µM with Leishmania infantum [12].
